What was measured:
Human adenovirus 5 [1] = test: Antiviral activity against Human adenovirus 5 infected in 293beta5 cells assessed as inhibition of plaque formation at 10 uM incubated for 7 days by GFP reporter gene assay relative to control; format: functional; conditions: Human mastadenovirus C, HEK293, 168 h, time 7 day
[2] = Selectivity index, ratio of CC50 for cytotoxicity against human A549 cells assessed as reduction in cell viability incubated for 48 hrs by alamarBlue assay to IC50 for antiviral activity against Human adenovirus 5 infected in 293beta5 cells assessed as inhibition of plaque formation incubated for 7 days by GFP reporter gene assay; format: toxicity, cell-based; conditions: read-out: Ratio CC50/IC50
[3] = Cytotoxicity against human A549 cells assessed as reduction in cell viability incubated for 48 hrs by alamarBlue assay; format: cell-based
Human adenovirus 5 [4] = test: Antiviral activity against GFP-fused Human adenovirus 5 infected in 293beta5 cells assessed as inhibition of plaque formation incubated for 7 days by GFP reporter gene assay; format: functional, organism-based; conditions: Human mastadenovirus C, HEK293, 168 h
Human adenovirus 5 [5] = test: Antiviral activity against Human adenovirus 5 infected in 293beta5 cells assessed as inhibition of virus infection at 10 fold IC50 measured after 60 mins by GFP reporter gene assay relative to control; format: functional, HEK293; conditions: 1 h
Human adenovirus 5 [6] = test: Antiviral activity against wild-type Human adenovirus 5 infected in human A549 cells assessed as inhibition of viral entry by measuring nuclear associated viral genome level at 10 fold IC50 incubated for 45 mins by RT-PCR analysis (reference value: 100 +/- 1.07 %); format: functional; design: scale not given: the % may be the effect or the level left; conditions: 0.75 h
Human betaherpesvirus 5 = test: Antiviral activity against human cytomegalovirus infected in HFF cells assessed as inhibition of viral replication by measuring number of DNA copies at 5 uM incubated for 72 hrs by RT-PCR analysis (reference value: 100 +/- 25.56 %); format: functional; design: scale not given: the % may be the effect or the level left
Human adenovirus 5 [7] = test: Antiviral activity against wild-type Human adenovirus 5 infected in human A549 cells assessed as inhibition of viral DNA replication by measuring number of viral DNA copies at 5 uM after 24 hrs by RT-qPCR analysis (reference value: 100 +/- 0.16 %); format: functional; design: scale not given: the % may be the effect or the level left
Human adenovirus 5 [8] = test: Antiviral activity against WT-Human adenovirus 5 infected in A549 cells assessed as fold reduction in virus yield at 10 fold of IC50 after 48 hrs endpoint dilution method; format: functional
[9] = Toxicity against cyclophosphamide-immunosuppressed golden syrian hamster assessed as loss of body weight at 1 mg/kg, administered for 14 days; format: organism-based, Mesocricetus auratus; conditions: in vivo, 336 h, time 14 day

Row | Compound | IC50 (Human adenovirus 5 [4]) [µM] | inhibition at 10 µM (Human adenovirus 5 [1]) [%] | selectivity ratio at 48 h [2] | CC50 at 48 h [3] [µM] | other results
1 | O=C(Nc1ccc(NCc2ccc(F)cc2)cc1Cl)c1cc(Cl)ccc1O | 3.4 | 100 | 16 | 54.4 | –
2 | CCCNc1ccc(NC(=O)c2cc(Cl)ccc2O)c(Cl)c1 | 5.04 | 100 | 4.5 | 22.5 | –
3 | CN1CCC(CNc2ccc(NC(=O)c3cc(Cl)ccc3O)c(Cl)c2)CC1 | – | 0 | – | – | –
4 | CN(C)c1ccc(CNc2ccc(NC(=O)c3cc(Cl)ccc3O)c(Cl)c2)cc1 | 2.73 | 100 | 9 | 24.5 | –
5 | O=C(Nc1ccc(NCc2cccnc2Cl)cc1Cl)c1cc(Cl)ccc1O | 4.78 | 100 | 21 | 100 | –
6 | O=C(Nc1ccc(NC2CCCC2)cc1)c1cc(Cl)ccc1O | 2.6 | – | 3.9 | 10 | –
7 | O=C(Nc1ccc(NCc2ccccc2)cc1Cl)c1cc(Cl)ccc1O | 2.52 | 100 | 7.8 | 19.7 | –
8 | COc1ccc(CNc2ccc(NC(=O)c3cc(Cl)ccc3O)c(Cl)c2)cc1 | 3.61 | 100 | 22.4 | 80.7 | –
9 | O=C(Nc1ccc(N(CCCO)CCCO)cc1Cl)c1cc(Cl)ccc1O | – | – | – | 114 | –
10 | O=C(NCc1ccc(NC2CCCC2)cc1Cl)c1cc(Cl)ccc1O | 7.97 | – | 3.6 | 28.3 | –
11 | CC(C)[C@H](NC(=O)c1cc(Cl)ccc1O)C(=O)Nc1ccc(NC2CCCC2)cc1Cl | 3.83 | – | 28.9 | 111 | –
12 | O=C(Nc1ccc(NCc2ccncc2)cc1Cl)c1cc(Cl)ccc1O | 2.66 | 100 | 24.6 | 65.3 | –
13 | CN1CCC(Oc2ccc(Cl)cc2C(=O)Nc2ccc(NC3CCCC3)cc2Cl)CC1 | – | 0 | – | – | –
14 | Cc1ccc(O)c(C(=O)Nc2ccc(NC3CCCC3)cc2Cl)c1 | 2.72 | – | 11.4 | 30.9 | –
15 | Nc1ccc(NC(=O)c2cc(Cl)ccc2O)c(Cl)c1 | – | 0 | – | – | –
16 | O=C(Nc1ccc(NCc2ccc3cn[nH]c3c2)cc1Cl)c1cc(Cl)ccc1O | 4.65 | – | 9.7 | 45.3 | –
17 | O=C(Nc1ccc(NCCCO)cc1Cl)c1cc(Cl)ccc1O | – | – | – | 106 | –
18 | CC(=O)Nc1ccc(NC(=O)c2cc(Cl)ccc2O)c(Cl)c1 | – | 0 | – | – | –
19 | CC(C)(C)OC(=O)NCCNc1ccc(NC(=O)c2cc(Cl)ccc2O)c(Cl)c1 | 2.78 | 100 | 9 | 25 | –
20 | O=C(Nc1ccc(NCc2ccc(Br)s2)cc1Cl)c1cc(Cl)ccc1O | 2.58 | 100 | 8 | 20.7 | –
21 | O=C(Nc1ccc([N+](=O)[O-])cc1Cl)c1cc(Cl)ccc1O [NICLOSAMIDE] | 0.6 | 100 | – | – | inhibition (INH) (Human adenovirus 5 [5]): >=50%; Activity (Human betaherpesvirus 5): 1.7%; Activity [9]: Non-Toxic
22 | O=C(Nc1ccc(NCc2cc(Cl)cc(Cl)c2)cc1Cl)c1cc(Cl)ccc1O | 1.43 | 100 | 9.3 | 13.3 | –

Continued by falling IC50 (Human adenovirus 5 [4]), values first:

Row | IC50 (Human adenovirus 5 [4]) [µM] | Compound | inhibition at 10 µM (Human adenovirus 5 [1]) [%] | selectivity ratio at 48 h [2] | CC50 at 48 h [3] [µM] | other results
23 | 2.26 | O=C(Nc1ccc(NCc2cccc(Br)n2)cc1Cl)c1cc(Cl)ccc1O | 100 | 40.8 | 92.3 | –
24 | 2.18 | CCNc1ccc(NC(=O)c2cc(Cl)ccc2O)c(Cl)c1 | 100 | 13.9 | 30.2 | –
25 | 1.92 | CN(C)c1ccc(NC(=O)c2cc(Cl)ccc2O)c(Cl)c1 | 100 | 44.3 | 85.1 | –
26 | 1.84 | O=C(Nc1ccc(NCc2ccc(Br)cc2)cc1Cl)c1cc(Cl)ccc1O | 100 | 22.2 | 40.9 | –
27 | 1.79 | O=C(Nc1ccc(NCc2cc(Cl)cc(C(F)(F)F)c2)cc1Cl)c1cc(Cl)ccc1O | – | 17.3 | 30.9 | –
28 | 1.72 | CS(=O)(=O)Nc1ccc(Cl)cc1C(=O)Nc1ccc(NC2CCCC2)cc1Cl | – | 20.6 | 35.4 | –
29 | 1.66 | O=C(Nc1ccc(NCc2cnccc2Cl)cc1Cl)c1cc(Cl)ccc1O | 100 | 75.7 | 126 | –
30 | 1.43 | O=C(Nc1ccc(NCc2ccc(C(F)(F)F)cc2)cc1Cl)c1cc(Cl)ccc1O | – | 43.8 | 62.7 | –
31 | 1.38 | O=C(Nc1ccc(NCC2CC2)cc1Cl)c1cc(Cl)ccc1O | 100 | 10.4 | 14.4 | –
32 | 1.34 | O=C(Nc1cc(NC2CCCC2)ccc1F)c1cc(Cl)ccc1O | – | 32.8 | 44 | –
33 | 1.34 | O=C(Nc1ccc(NC2CCCCC2)cc1Cl)c1cc(Cl)ccc1O | – | 51.1 | 68.3 | –
34 | 1.28 | O=C(Nc1ccc(NCc2cc(F)cc(Cl)c2)cc1Cl)c1cc(Cl)ccc1O | – | 8.7 | 11.1 | –
35 | 1.24 | O=C(Nc1ccc(NCC2CCCC2)cc1Cl)c1cc(Cl)ccc1O | 100 | 17.3 | 21.5 | –
36 | 1.21 | CC(C)(C)OC(=O)N1CCC(Nc2ccc(NC(=O)c3cc(Cl)ccc3O)c(Cl)c2)CC1 | – | 82.6 | 100 | –
37 | 1.21 | CCCCCCCCC(C)Nc1ccc(NC(=O)c2cc(Cl)ccc2O)c(Cl)c1 (stereo not drawn) | 100 | 18.1 | 21.9 | –
38 | 1.2 | O=C(Nc1ccc(NCc2ccc(Cl)cc2)cc1Cl)c1cc(Cl)ccc1O | 100 | 49.7 | 59.7 | –

Row | IC50 (Human adenovirus 5 [4]) [µM] | Compound | inhibition at 10 µM (Human adenovirus 5 [1]) [%] | selectivity ratio at 48 h [2] | CC50 at 48 h [3] [µM] | other results
39 | 1.16 | O=C(Nc1ccc(NCc2cc(F)cc(C(F)(F)F)c2)cc1Cl)c1cc(Cl)ccc1O | 100 | 26.7 | 30.9 | –
40 | 1.12 | O=C(Nc1ccc(NCc2cc(C(F)(F)F)cc(C(F)(F)F)c2)cc1Cl)c1cc(Cl)ccc1O | 100 | 82.9 | 92.8 | –
41 | 1.04 | O=C(Nc1ccc(NC2CCCC2)cc1F)c1cc(Cl)ccc1O | – | 49.1 | 51 | –
42 | 0.89 | CC(C)CNc1ccc(NC(=O)c2cc(Cl)ccc2O)c(Cl)c1 | 100 | 67.4 | 60 | –
43 | 0.88 | CC(C)Nc1ccc(NC(=O)c2cc(Cl)ccc2O)c(Cl)c1 | 100 | 12.5 | 11 | –
44 | 0.88 | O=C(Nc1ccc(NCc2cccc(C(F)(F)F)c2)cc1Cl)c1cc(Cl)ccc1O | 100 | 15.2 | 13.3 | –
45 | 0.86 | CCN(CC)c1ccc(NC(=O)c2cc(Cl)ccc2O)c(Cl)c1 | 100 | 64.5 | 55.5 | –
46 | 0.84 | O=C(Nc1ccc(NC2CCCC2)c(Cl)c1)c1cc(Cl)ccc1O | 100 | 20.1 | 16.9 | –
47 | 0.74 | CC1(ON(c2ccc(NC(=O)c3cc(Cl)ccc3O)c(Cl)c2)C2(C)CCCC2)CCCC1 | 100 | 24.3 | 18 | –
48 | 0.67 | CCCN(CCC)c1ccc(NC(=O)c2cc(Cl)ccc2O)c(Cl)c1 | 100 | 16 | 10.7 | –
49 | 0.62 | O=C(Nc1ccc(N(CC2CC2)CC2CC2)cc1Cl)c1cc(Cl)ccc1O | 100 | 20.7 | 12.8 | –
50 | 0.5 | O=C(Nc1ccc(NC2CCCC2)cc1Cl)c1cc(Cl)ccc1O | 100 | 186 | 92.9 | inhibition (INH) (Human adenovirus 5 [5]): >=50%; Activity (Human adenovirus 5 [6]): 98.84%; Activity (Human betaherpesvirus 5): 100%; Activity (Human adenovirus 5 [7]): 14.42%; fold change (FC) (Human adenovirus 5 [8]): 17.1
51 | 0.45 | CC(C)[C@H](NC(=O)c1cc(Cl)ccc1O)C(=O)Nc1ccc([N+](=O)[O-])cc1Cl | – | 444 | – | –
52 | 0.32 | CCCCCCC(C)Nc1ccc(NC(=O)c2cc(Cl)ccc2O)c(Cl)c1 (stereo not drawn) | 100 | 73.4 | 23.5 | –
53 | 0.18 | O=C(Nc1cc(F)cc(C(F)(F)F)c1)c1cc(Cl)ccc1O | – | 667 | – | –

From ChEMBL document CHEMBL4699598, “Discovery of Novel Substituted N-(4-Amino-2-chlorophenyl)-5-chloro-2-hydroxybenzamide Analogues as Potent Human Adenovirus Inhibitors” (J Med Chem, 2020)
